Experimental data taken from paper PMC5464637, “Identification of key amino acid residues in the hTGR5–nomilin interaction and construction of its binding model” (PLoS ONE, 2017).
Changes are numbered by the printed parent chain.

Tests used:
[1] = biological target: T1, hTGR5-WT (Homo sapiens, UniProt Q8TDU6); experiment: CRE-luciferase reporter assay in HEK293 cells transfected with hTGR5-WT; format: cell-based; conditions: for agonist activity (CRE-luciferase response): hTGR5-WT, 100 μM, 5 h, HEK293
T1 construct: expressed in transfected cells; host or cells: HEK293
T1 sequence (Q8TDU6 1-330): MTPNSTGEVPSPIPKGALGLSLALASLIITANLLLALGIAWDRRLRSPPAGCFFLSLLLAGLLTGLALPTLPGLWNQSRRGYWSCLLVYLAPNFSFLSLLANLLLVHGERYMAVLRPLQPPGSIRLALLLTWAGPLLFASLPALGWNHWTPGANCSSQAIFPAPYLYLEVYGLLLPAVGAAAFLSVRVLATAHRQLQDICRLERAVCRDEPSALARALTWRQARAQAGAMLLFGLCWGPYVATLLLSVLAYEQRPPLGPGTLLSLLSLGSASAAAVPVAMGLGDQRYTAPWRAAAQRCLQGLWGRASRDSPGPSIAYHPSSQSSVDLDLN
Experimental: (§1) HEK293 cells were plated in 12-well plates at a density of 1.0 × 10^5 cells/well. Twenty hours later, the cells were transfected with pCRE-Luc, p3×FLAG-CMV-TGR5, and pEF-β-galactosidase (100 ng/well each) using the calcium phosphate method. After 4 h of incubation, the medium was replaced with DMEM, which contained 10% dextran charcoal-stripped FBS. Twenty-four hours after transfection, the cells were treated with the previously mentioned compounds and control vehicle (DMSO). After 5 h, the cells were then incubated with lysis buffer (25 mM Tris-phosphate [pH 7.8], 2 mM dithiothreitol [DTT], 2 mM trans-1,2-Diaminocyclohexane-N,N,N, N′-tetraacetic acid [CDTA], 10% glycerol, and 1% Triton X-100) on ice, and the luciferase and β-galactosidase activity were measured. The luciferase activity values were divided by those of β-galactosidase to obtain normalized luciferase values.

[2] = biological target: T2, mTGR5-WT (Mus musculus, UniProt Q80SS6); experiment: CRE-luciferase reporter assay in HEK293 cells transfected with mTGR5-WT; format: cell-based; conditions: for agonist activity (CRE-luciferase response): 100 μM, 5 h, HEK293; for EC50: CRE-luciferase dose-response, HEK293, n = 3
T2 construct: expressed in transfected cells; host or cells: HEK293
T2 sequence (Q80SS6 1-329): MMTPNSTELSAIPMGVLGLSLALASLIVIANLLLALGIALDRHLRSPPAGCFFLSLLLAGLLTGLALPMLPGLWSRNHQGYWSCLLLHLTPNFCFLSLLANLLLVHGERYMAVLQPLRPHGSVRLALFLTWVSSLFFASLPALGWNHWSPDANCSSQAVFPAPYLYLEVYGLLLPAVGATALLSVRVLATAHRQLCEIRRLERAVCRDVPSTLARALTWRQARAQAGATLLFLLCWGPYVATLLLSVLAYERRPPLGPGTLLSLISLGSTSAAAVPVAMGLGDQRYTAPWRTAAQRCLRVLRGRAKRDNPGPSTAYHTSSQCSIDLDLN
Experimental: as §1

[3] = system: hTGR5-Q77A/R80A/Y89A; conditions: 100 μM, 5 h, HEK293
Experimental: as §1
(PDF) Click here for additional data file.

[4] = biological target: T3, mTGR5-R76Q/Q79R/H88Y (Mus musculus, UniProt Q80SS6, H88Y/Q79R/R76Q); experiment: CRE-luciferase reporter assay in HEK293 cells transfected with mouse-to-human triple mutant TGR5; conditions: for agonist activity (CRE-luciferase response): mTGR5-R76Q/Q79R/H88Y, HEK293
T3 sequence (Q80SS6 1-329 R76Q/Q79R/H88Y): T2 sequence (Q80SS6 1-329) with R76Q, Q79R, H88Y

[5] = biological target: T4, hTGR5-Q77R/R80Q/Y89H (Homo sapiens, UniProt Q8TDU6, Q77R/R80Q/Y89H); experiment: CRE-luciferase reporter assay in HEK293 cells transfected with human-to-mouse triple mutant TGR5; conditions: for EC50: CRE-luciferase dose-response, HEK293, n = 3; for agonist activity (CRE-luciferase response): HEK293
T4 sequence (Q8TDU6 1-330 Q77R/R80Q/Y89H): T1 sequence (Q8TDU6 1-330) with Q77R, R80Q, Y89H

SMILES	EC50 [1]	agonist activity (CRE-luciferase response) [2]	EC50 [2]	agonist activity (CRE-luciferase response) [3]	EC50 [4]	agonist activity (CRE-luciferase response) [4]	EC50 [5]	agonist activity (CRE-luciferase response) [5]	agonist activity (CRE-luciferase response) [1]
CC(=O)O[C@H]1CC(=O)OC(C)(C)[C@@H]2CC(=O)[C@]3(C)[C@H](CC[C@@]4(C)[C@H](c5ccoc5)OC(=O)[C@H]5O[C@]543)[C@@]12C [nomilin]	23.6 µM	considerably weaker agonist activity for mTGR5 than it does for hTGR5	undetectable	very weak nomilin response relative to WT-hTGR5	46.2 µM	strong nomilin response equal to that of hTGR5-WT	undetectable	very weak nomilin response identical to that of mTGR5	–
CC1(C)OC(=O)C=C[C@]2(C)[C@H]3CC[C@@]4(C)[C@H](c5ccoc5)OC(=O)[C@H]5O[C@]54[C@]3(C)C(=O)C[C@@H]12 [obacunone]	147 µM	very weak obacunone response	undetectable	–	165 µM	equally intense obacunone responses	undetectable	very weak obacunone response	stronger agonist activity for hTGR5 than it does for mTGR5
CC1(C)O[C@H]2CC(=O)OC[C@]23[C@H]2CC[C@@]4(C)[C@H](c5ccoc5)OC(=O)[C@H]5O[C@]54[C@]2(C)C(=O)C[C@@H]13 [limonin]	–	–	–	–	–	–	–	–	very weak hTGR5 agonist activity
